# From publication PMC11237035, “Glutathione determines chronic myeloid leukemia vulnerability to an inhibitor of CMPK and TMPK” (Communications Biology, 2024)
# “And” between values parts separate entries of the source, which are not always exact repeats. Equal values may be shown once. Read-outs that look alike come from different tables or passages of the source.
# Experiments:
# Assay type in all cases: cell-based, mouse
# T315I-Bcr-Abl-32D cells [1] = test: dTTP/dCTP pools by RCA-qPCR in T315I-Bcr-Abl-32D cells; conditions: T315I-Bcr-Abl-32D cells, combinatory treatment of UK-5099 with JMF4073
# Description: The methanol extracts were centrifuged
# For chloroform extraction, same volume of
# attomol of the annealed template-primer.
# The RCA products were determined by
# The thiophenol compound 3 was
# (98.5%) after silica gel chromatography.
# untransformed 32D cells = test: CCK-8 cell viability assay, untransformed 32D cells; conditions: for viability (vehicle, 0 = 100): 32D cells, 72 h, no BSO; for viability (vehicle, 0 = 100) / viability (0 = 100): single replicates; for viability (0 = 100): Untransformed
# Description: After 72 h, viability assays were performed.
# 3 independent experiments. Asterisks denote ***p<0.001 from non-paired two-tailed
# WT-Bcr-Abl-32D cells = test: CCK-8 cell viability assay, WT-Bcr-Abl-32D cells; conditions: for viability (0 = 100): single replicates
# T315I-Bcr-Abl-32D cells [2] = test: CCK-8 cell viability assay, T315I-Bcr-Abl-32D cells; conditions: for cell viability (% of NT, 0 JMF4073), Figure 5e / cell viability (% of 0 JMF4073), Figure 5b: T315I; for cell viability (% of NT, 0 JMF4073), Figure 5e: NT (no BSO)
smiles,measurement,setting,value
"CC(C)(C)OC(=O)N1CCN(C(=O)Cn2sc3ccc(F)cc3c2=O)CC1 [JMF4073, Tert-butyl 4-(2-(5-fluoro-3-oxobenzo[d]isothiazol-2(3H)-yl)acetyl) piperazine-1-carboxylate]",dCTP pool,T315I-Bcr-Abl-32D cells [1],exhaustion
same,dTTP pool,T315I-Bcr-Abl-32D cells [1],exhaustion
same,"viability (vehicle, 0 = 100)",untransformed 32D cells; JMF4073 0.5 mM (so in the source),108 and 88
same,"viability (vehicle, 0 = 100)",untransformed 32D cells; JMF4073 1.25 mM (so in the source),86 and 80
same,"viability (vehicle, 0 = 100)",untransformed 32D cells; JMF4073 2.5 mM (so in the source),70 and 71.46
same,"growth of cells, BSO in combination with JMF4073",untransformed 32D cells; 32D myeloid progenitor cells,severely suppressed the growth
same,GI50,"untransformed 32D cells; Mus musculus, untransformed 32D cells, viability",4.2 µM
same,viability (0 = 100),untransformed 32D cells; JMF4073 1 mM (so in the source),80.74 and 95.63 and 110
same,viability (0 = 100),untransformed 32D cells; JMF4073 2 mM (so in the source),67.24 and 95.4 and 71
same,viability (0 = 100),untransformed 32D cells; JMF4073 5 mM (so in the source),26.41 and 55.58 and 32
same,GI50,"WT-Bcr-Abl-32D cells; Mus musculus, WT-Bcr-Abl-32D cells, viability",0.67 µM
same,viability (0 = 100),"WT-Bcr-Abl-32D cells; WT-Bcr-Abl, JMF4073 1 mM (so in the source)",5 and 32.8138 and 24
same,viability (0 = 100),"WT-Bcr-Abl-32D cells; WT-Bcr-Abl, JMF4073 2 mM (so in the source)",1 and 9.014 and 19
same,viability (0 = 100),"WT-Bcr-Abl-32D cells; WT-Bcr-Abl, JMF4073 5 mM (so in the source)",-1.08 and 0.13 and 0
same,"cell viability (% of NT vehicle), Figure 5h","WT-Bcr-Abl-32D cells; WT-Bcr-Abl, NT (no NAC), JMF4073, single replicates",28.4633 and 15.0339 and 2.584
same,JMF4073 sensitivity after NAC treatment,"WT-Bcr-Abl-32D cells; WT-Bcr-Abl-32D cells, NAC 1 mM + JMF4073 0.5 μM, 72 h",insensitive to JMF4073
same,viability at 1000 µM,"T315I-Bcr-Abl-32D cells [2]; Mus musculus, T315I-Bcr-Abl, JMF4073 1 mM (so in the source), single replicates, read-out: viability (0 = 100)",69%
same,viability at 500 µM,"T315I-Bcr-Abl-32D cells [2]; Mus musculus, T315I-Bcr-Abl, NT (no UK-5099), JMF4073 0.5 mM as printed, replicates, read-out: Figure 6c, viability relative to NT (=100)",80.7%
same,viability at 1250 µM,"T315I-Bcr-Abl-32D cells [2]; Mus musculus, T315I-Bcr-Abl, NT (no UK-5099), JMF4073 1.25 mM as printed, replicates, read-out: Figure 6c, viability relative to NT (=100)",43%
same,viability at 500 µM,"T315I-Bcr-Abl-32D cells [2]; Mus musculus, read-out: cell viability (% of 0 JMF4073), Figure 5b, T315I, shLacZ, JMF4073 0.5 mM (so in the source), single replicates",78.6%
same,viability at 2500 µM,"T315I-Bcr-Abl-32D cells [2]; Mus musculus, read-out: cell viability (% of 0 JMF4073), Figure 5b, T315I, shLacZ, JMF4073 2.5 mM (so in the source), single replicates",15.5%
same,viability at 500 µM,"T315I-Bcr-Abl-32D cells [2]; Mus musculus, read-out: cell viability (% of 0 JMF4073), Figure 5b, T315I, shSHMT2, JMF4073 0.5 mM (so in the source), single replicates",71.4%
same,viability at 1250 µM,"T315I-Bcr-Abl-32D cells [2]; Mus musculus, read-out: cell viability (% of 0 JMF4073), Figure 5b, T315I, shSHMT2, JMF4073 1.25 mM (so in the source), single replicates",52.1%
same,viability at 2500 µM,"T315I-Bcr-Abl-32D cells [2]; Mus musculus, read-out: cell viability (% of 0 JMF4073), Figure 5b, T315I, shSHMT2, JMF4073 2.5 mM (so in the source), single replicates",14.5%
same,viability at 500 µM,"T315I-Bcr-Abl-32D cells [2]; Mus musculus, read-out: cell viability (% of NT, 0 JMF4073), Figure 5e, T315I, NT (no BSO), JMF4073 0.5 mM (so in the source), single replicates",88%
same,viability at 1250 µM,"T315I-Bcr-Abl-32D cells [2]; Mus musculus, read-out: cell viability (% of NT, 0 JMF4073), Figure 5e, T315I, NT (no BSO), JMF4073 1.25 mM (so in the source), single replicates",64%
same,GI50,"T315I-Bcr-Abl-32D cells [2]; Mus musculus, T315I-Bcr-Abl-32D cells, viability",1.5 µM
same,"cell viability (% of NT, 0 JMF4073), Figure 5e","T315I-Bcr-Abl-32D cells [2]; JMF4073 0.5 mM (so in the source), single replicates",86.2452 and 88.0302
same,"cell viability (% of NT, 0 JMF4073), Figure 5e","T315I-Bcr-Abl-32D cells [2]; JMF4073 1.25 mM (so in the source), single replicates",67.023 and 70.4858
same,"cell viability (% of NT, 0 JMF4073), Figure 5e","T315I-Bcr-Abl-32D cells [2]; JMF4073 2.5 mM (so in the source), single replicates",17 and 12.279 and 45.0063
same,"cell viability (% of 0 JMF4073), Figure 5b","T315I-Bcr-Abl-32D cells [2]; shLacZ, JMF4073 0.5 mM (so in the source), single replicates",80.777
same,"cell viability (% of 0 JMF4073), Figure 5b","T315I-Bcr-Abl-32D cells [2]; shLacZ, JMF4073 1.25 mM (so in the source), single replicates",68.6184 and 53.2629
same,"cell viability (% of 0 JMF4073), Figure 5b","T315I-Bcr-Abl-32D cells [2]; shLacZ, JMF4073 2.5 mM (so in the source), single replicates",11.7008
same,"cell viability (% of 0 JMF4073), Figure 5b","T315I-Bcr-Abl-32D cells [2]; shSHMT2, JMF4073 0.5 mM (so in the source), single replicates",67.1231
same,"cell viability (% of 0 JMF4073), Figure 5b","T315I-Bcr-Abl-32D cells [2]; shSHMT2, JMF4073 1.25 mM (so in the source), single replicates",37.9395
same,"cell viability (% of 0 JMF4073), Figure 5b","T315I-Bcr-Abl-32D cells [2]; shSHMT2, JMF4073 2.5 mM (so in the source), single replicates",11.3951
same,viability (0 = 100),"T315I-Bcr-Abl-32D cells [2]; T315I-Bcr-Abl, JMF4073 1 mM (so in the source), single replicates",70 and 66.4746
